# Reference: ChEMBL document CHEMBL5665443, “Enzyme Inhibitor Single Concentration assay results for EUbOPEN Chemogenomics Library” (2024)
# Legend:
# [1] = target: Methyl-CpG-binding domain protein 4 (Homo sapiens) (UniProt O95243); details: Hit No;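 also: MBD4 activity read as fluorescence at 594 nm from cleavage and release of a quenched duplex DNA oligonucleotide, with APE1 coupled to incise the strand and raise turnover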
# Description: Inhibition of MBD4 by quantifying inhibition of MBD4-mediated cleavage and dissociation of quenched duplex DNA oligonucleotides, measured as fluorescence at 594 nm. To generate a functional strand incision and increase turn-over this assay is coupled to APE1.
# [2] = target: Endonuclease 8-like 1 (Homo sapiens) (UniProt Q96FI4); details: Hit No;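 also: fluorescence at 594 nm from quenched duplex DNA oligonucleotides released by NEIL1 cleavage and strand separation, reported as reduction of this enzyme activity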
# Endonuclease 8-like 1 (Homo sapiens), sequence (Q96FI4 whole entry): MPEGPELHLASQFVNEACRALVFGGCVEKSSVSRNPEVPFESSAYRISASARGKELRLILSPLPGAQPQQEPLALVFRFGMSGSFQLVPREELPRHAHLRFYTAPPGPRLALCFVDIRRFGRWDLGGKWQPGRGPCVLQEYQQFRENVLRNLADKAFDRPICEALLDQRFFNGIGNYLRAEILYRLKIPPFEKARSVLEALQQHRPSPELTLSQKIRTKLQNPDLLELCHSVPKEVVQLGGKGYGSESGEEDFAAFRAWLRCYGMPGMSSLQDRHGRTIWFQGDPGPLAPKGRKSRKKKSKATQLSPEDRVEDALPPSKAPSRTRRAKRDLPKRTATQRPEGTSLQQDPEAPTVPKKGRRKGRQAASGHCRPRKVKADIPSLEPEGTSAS
# Description: Inhibition of NEIL1 by quantifying inhibition of NEIL1-mediated cleavage and dissociation of quenched duplex DNA oligonucleotides, measured as fluorescence at 594 nm.
# [3] = target: T1, Endonuclease 8-like 2 (Homo sapiens) (UniProt Q969S2); details: Hit No;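 also: fluorescence at 594 nm reports NEIL2 cutting and release of a quenched double-stranded DNA oligo substrate, reduced signal read as inhibition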
# T1 sequence (whole entry): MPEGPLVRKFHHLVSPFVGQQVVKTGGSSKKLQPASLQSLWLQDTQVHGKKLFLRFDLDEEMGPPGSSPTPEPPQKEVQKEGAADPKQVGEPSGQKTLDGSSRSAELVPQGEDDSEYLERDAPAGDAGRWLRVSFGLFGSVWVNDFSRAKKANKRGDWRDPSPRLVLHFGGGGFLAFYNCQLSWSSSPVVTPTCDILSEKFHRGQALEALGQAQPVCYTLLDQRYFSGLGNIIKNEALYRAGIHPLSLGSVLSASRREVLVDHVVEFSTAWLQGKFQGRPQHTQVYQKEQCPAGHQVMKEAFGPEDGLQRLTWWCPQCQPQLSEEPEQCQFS
# Description: Inhibition of NEIL2 by quantifying inhibition of NEIL2-mediated cleavage and dissociation of quenched duplex DNA oligonucleotides, measured as fluorescence at 594 nm.
# [4] = target: T2, Endonuclease III-like protein 1 (Homo sapiens) (UniProt P78549); details: Hit No;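 also: enzyme assay tracking NTHL1 cutting and release of a quenched double-stranded DNA oligo substrate, read as fluorescence at 594 nm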
# T2 sequence (whole entry): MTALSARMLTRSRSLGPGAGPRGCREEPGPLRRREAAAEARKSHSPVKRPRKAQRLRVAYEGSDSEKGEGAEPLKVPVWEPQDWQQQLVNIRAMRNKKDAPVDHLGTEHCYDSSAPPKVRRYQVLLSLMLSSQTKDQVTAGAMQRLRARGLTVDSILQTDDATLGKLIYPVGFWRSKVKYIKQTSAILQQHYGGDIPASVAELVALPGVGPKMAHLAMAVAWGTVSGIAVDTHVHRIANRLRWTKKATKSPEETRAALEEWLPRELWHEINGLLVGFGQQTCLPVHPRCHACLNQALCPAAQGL
# Description: Inhibition of NTHL1 by quantifying inhibition of NTHL1-mediated cleavage and dissociation of quenched duplex DNA oligonucleotides, measured as fluorescence at 594 nm.
# [5] = target: N-glycosylase/DNA lyase (Homo sapiens) (UniProt O15527);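 also: OGG1 cleavage of a quenched duplex DNA oligonucleotide, coupled to APE1 for strand incision, read as fluorescence at 594 nm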
# N-glycosylase/DNA lyase (Homo sapiens), sequence (O15527 whole entry): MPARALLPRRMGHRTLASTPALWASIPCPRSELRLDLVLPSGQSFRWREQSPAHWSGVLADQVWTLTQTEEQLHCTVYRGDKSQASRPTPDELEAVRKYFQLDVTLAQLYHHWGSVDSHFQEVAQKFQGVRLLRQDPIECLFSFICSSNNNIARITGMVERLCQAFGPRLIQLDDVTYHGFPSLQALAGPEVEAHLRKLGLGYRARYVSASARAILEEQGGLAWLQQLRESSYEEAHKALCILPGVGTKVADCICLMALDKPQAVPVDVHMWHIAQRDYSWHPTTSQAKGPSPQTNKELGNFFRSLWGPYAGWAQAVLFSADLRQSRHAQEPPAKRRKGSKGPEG
# Description: Inhibition of OGG1 by quantifying inhibition of OGG1-mediated cleavage and dissociation of quenched duplex DNA oligonucleotides, measured as fluorescence at 594 nm. To generate a functional strand incision and increase turn-over this assay is coupled to APE1.
# [6] = target: T3, Single-strand selective monofunctional uracil DNA glycosylase (Homo sapiens) (UniProt Q53HV7); details: Hit No;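 also: enzymatic SMUG1 assay coupled with APE1, reading fluorescence at 594 nm released when a quenched double-stranded DNA oligonucleotide substrate is cleaved and separated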
# T3 sequence (whole entry): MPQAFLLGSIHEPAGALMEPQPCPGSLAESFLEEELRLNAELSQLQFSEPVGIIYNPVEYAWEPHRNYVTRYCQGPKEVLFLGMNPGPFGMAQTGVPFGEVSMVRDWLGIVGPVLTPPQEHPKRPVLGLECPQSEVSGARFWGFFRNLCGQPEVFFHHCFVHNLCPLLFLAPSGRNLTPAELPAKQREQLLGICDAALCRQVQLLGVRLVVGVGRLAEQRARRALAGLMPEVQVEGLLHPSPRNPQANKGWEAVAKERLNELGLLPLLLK
# Description: Inhibition of SMUG1 by quantifying inhibition of SMUG1-mediated cleavage and dissociation of quenched duplex DNA oligonucleotides, measured as fluorescence at 594 nm. To generate a functional strand incision and increase turn-over this assay is coupled to APE1.
# [7] = target: G/T mismatch-specific thymine DNA glycosylase (Homo sapiens) (UniProt Q13569); details: Hit No;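 also: human TDG cleavage of quenched duplex DNA oligonucleotides coupled to APE1, strand release read as fluorescence at 594 nm, inhibition of TDG activity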
# G/T mismatch-specific thymine DNA glycosylase (Homo sapiens), sequence (Q13569 whole entry): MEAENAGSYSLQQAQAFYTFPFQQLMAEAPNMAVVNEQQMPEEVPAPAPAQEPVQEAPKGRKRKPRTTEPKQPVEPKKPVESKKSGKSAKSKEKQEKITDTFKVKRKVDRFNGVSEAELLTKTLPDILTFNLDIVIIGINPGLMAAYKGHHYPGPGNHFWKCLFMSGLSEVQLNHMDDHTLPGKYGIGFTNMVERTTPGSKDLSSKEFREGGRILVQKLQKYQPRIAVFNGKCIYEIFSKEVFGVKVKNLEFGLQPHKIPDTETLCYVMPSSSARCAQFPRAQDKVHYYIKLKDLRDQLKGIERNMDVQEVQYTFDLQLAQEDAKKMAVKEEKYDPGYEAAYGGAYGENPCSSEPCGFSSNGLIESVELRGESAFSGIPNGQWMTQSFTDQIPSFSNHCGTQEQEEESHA
# Description: Inhibition of TDG by quantifying inhibition of TDG-mediated cleavage and dissociation of quenched duplex DNA oligonucleotides, measured as fluorescence at 594 nm. To generate a functional strand incision and increase turn-over this assay is coupled to APE1.
# [8] = target: Uracil-DNA glycosylase (Homo sapiens) (UniProt P13051); details: Hit No;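 also: UNG excision on a quenched double-stranded DNA oligo probe, with APE1 added for strand incision and turnover, read as fluorescence at 594 nm as strands separate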
# Uracil-DNA glycosylase (Homo sapiens), sequence (P13051 whole entry): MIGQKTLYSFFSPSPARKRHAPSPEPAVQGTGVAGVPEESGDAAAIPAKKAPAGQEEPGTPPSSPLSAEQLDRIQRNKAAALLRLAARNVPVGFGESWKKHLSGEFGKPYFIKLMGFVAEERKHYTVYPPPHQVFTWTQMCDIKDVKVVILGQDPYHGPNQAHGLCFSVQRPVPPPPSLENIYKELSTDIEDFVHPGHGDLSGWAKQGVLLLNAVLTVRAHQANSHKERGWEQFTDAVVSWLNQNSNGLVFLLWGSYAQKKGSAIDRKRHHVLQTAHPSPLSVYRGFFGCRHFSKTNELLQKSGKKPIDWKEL
# Description: Inhibition of UNG by quantifying inhibition of UNG-mediated cleavage and dissociation of quenched duplex DNA oligonucleotides, measured as fluorescence at 594 nm. To generate a functional strand incision and increase turn-over this assay is coupled to APE1.
# [9] = Compound Concentration 10.0 uM, Hit No
# [10] = Compound Concentration 1.0 uM, Hit No
# Methyl-CpG-binding domain protein 4 (Homo sapiens), sequence (O95243 whole entry, the tested form may be a part): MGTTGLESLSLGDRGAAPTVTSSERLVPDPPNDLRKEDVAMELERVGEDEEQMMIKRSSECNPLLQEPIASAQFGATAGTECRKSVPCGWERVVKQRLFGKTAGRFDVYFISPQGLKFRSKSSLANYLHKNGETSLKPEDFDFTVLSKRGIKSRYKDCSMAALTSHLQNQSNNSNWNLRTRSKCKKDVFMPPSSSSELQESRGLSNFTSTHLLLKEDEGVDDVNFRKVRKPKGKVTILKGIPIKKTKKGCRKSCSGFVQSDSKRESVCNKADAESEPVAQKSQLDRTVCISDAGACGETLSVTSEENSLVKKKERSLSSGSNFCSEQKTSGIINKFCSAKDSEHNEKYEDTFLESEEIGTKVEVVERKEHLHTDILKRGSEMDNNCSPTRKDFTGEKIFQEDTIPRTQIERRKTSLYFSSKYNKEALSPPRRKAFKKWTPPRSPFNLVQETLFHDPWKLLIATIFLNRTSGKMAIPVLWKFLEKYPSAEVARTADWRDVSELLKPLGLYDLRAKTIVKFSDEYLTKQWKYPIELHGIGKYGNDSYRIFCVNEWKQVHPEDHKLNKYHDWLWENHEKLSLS
SMILES,inhibition ([1]; Compound Concentration 10.0 uM) [%],inhibition ([2]; Compound Concentration 10.0 uM) [%],inhibition ([3]; Compound Concentration 10.0 uM) [%],inhibition ([4]; Compound Concentration 10.0 uM) [%],"inhibition [5, 9] [%]",inhibition ([6]; Compound Concentration 10.0 uM) [%],inhibition ([7]; Compound Concentration 10.0 uM) [%],inhibition ([8]; Compound Concentration 10.0 uM) [%],inhibition ([1]; Compound Concentration 1.0 uM) [%],inhibition ([2]; Compound Concentration 1.0 uM) [%],inhibition ([3]; Compound Concentration 1.0 uM) [%],inhibition ([4]; Compound Concentration 1.0 uM) [%],"inhibition [5, 10] [%]",inhibition ([6]; Compound Concentration 1.0 uM) [%],inhibition ([7]; Compound Concentration 1.0 uM) [%],inhibition ([8]; Compound Concentration 1.0 uM) [%],"inhibition ([5]; Compound Concentration 10.0 uM, Hit Yes) [%]"
CC(C)(O)c1cn(-c2ccc(-c3cccc(S(C)(=O)=O)c3)cc2)c(C(C)(C)c2ccccc2Cl)n1,15.3,-5.44,-6.36,-2.6,5,17.1,57.4,-9.54,–,–,–,–,–,–,–,–,–
CCCCOCCOc1nc(-c2ccc(C(=O)O)c(F)c2)sc1C,64.4,6.68,6.14,-1.29,14.4,18.1,46.5,1.01,–,–,–,–,–,–,–,–,–
Cc1cc(C)c(-n2ccn3nc(-c4cccnc4)cc23)cc1NC(=O)c1cc(C#N)cc(S(F)(F)(F)(F)F)c1,–,–,–,–,–,–,–,–,40,-7.27,-7.9,-3.66,1.96,7.64,50.8,1.49,–
CCCOc1ccc([C@H]2[C@H](C(=O)O)[C@@H](c3ccc4c(c3)OCO4)CN2CC(=O)Nc2c(CC)cccc2CC)cc1,–,–,–,–,–,–,–,–,70.6,2.13,0.276,-5.23,10.2,23,57.6,6.95,–
O=C1NCN(c2ccccc2)C12CCN(CC1COc3ccccc3O1)CC2 (stereo unspecified),-3.04,-5.84,-3.23,2.66,-5.28,1.76,2.98,-8.19,–,–,–,–,–,–,–,–,–
O=C(O)c1ccc2cc(-c3ccc(O)c(C45CC6CC(CC(C6)C4)C5)c3)ccc2c1,57.8,-4.23,-9.42,-1.29,–,17.5,50.7,4.34,–,–,–,–,–,–,–,–,85.9
COc1ccc(-c2ccc3cc(C(=O)O)ccc3c2)cc1C12CC3CC(CC(C3)C1)C2,48.6,-5.14,-6.1,6.6,34.6,7.63,39.5,-6.23,–,–,–,–,–,–,–,–,–
COc1ccc(CC[C@@H](OC(=O)[C@H]2CCCCN2C(=O)[C@@H](c2cc(OC)c(OC)c(OC)c2)C2CCCCC2)c2cccc(OCCN3CCOCC3)c2)cc1OC,63.9,-4.53,4.61,0.685,-1.2,19.6,97,9.57,–,–,–,–,–,–,–,–,–
CO[C@H]1CC[C@H](CNc2ccc(S(=O)(=O)NC(=O)c3ccc(N4CCN(CC5=C(c6ccc(Cl)cc6)CC(C)(C)CC5)CC4)cc3Oc3cnc4[nH]ccc4c3)cc2[N+](=O)[O-])CC1,55.7,-6.8,2.57,-7.86,62,17.9,47.9,3.44,–,–,–,–,–,–,–,–,–
O=C(NOC[C@H](O)CO)c1ccc(F)c(F)c1Nc1ccc(I)cc1F,–,–,–,–,–,–,–,–,-6.44,6.08,-6.76,5.67,-3.87,-2.11,39.9,-1.39,–
O=S(=O)(NC1CCC(c2cc(F)ccc2F)(S(=O)(=O)c2ccc(Cl)cc2)CC1)C(F)(F)F (stereo unspecified),–,–,–,–,–,–,–,–,61.8,-7.56,-8.91,-3.92,19.6,19.5,36.8,0.604,–
O=C(NCc1ncc(C(F)(F)F)cc1Cl)c1ccc2c(c1)C1(CCS(=O)(=O)CC1)[C@@H](C1CC1)N2S(=O)(=O)c1ccc(F)cc1,54.9,-9.38,-9.67,-8.52,3.62,6.37,36.9,-1.13,–,–,–,–,–,–,–,–,–
O=C(O)CCC/C=C\CC1C(O)CC(O)C1/C=C/C(O)COc1cccc(Cl)c1 (stereo unspecified),-2.64,-0.0556,-0.234,21,-6.16,-7.54,2.98,-7.78,–,–,–,–,–,–,–,–,–
NS(=O)(=O)c1cc(NC(=O)C2(c3ccccc3Cl)CC2)ccc1Oc1cccc(Cl)c1,26.3,-2.56,3.34,-7.86,21.8,17.9,35.3,-3.29,–,–,–,–,–,–,–,–,–
CNC(=O)COc1cc2cc(Nc3nc(N4C[C@H](C)C[C@H](C)C4)ncc3Cl)ccc2n(C)c1=O,45.8,-7.56,4.1,-7.86,1.85,10.3,53.4,2.34,–,–,–,–,–,–,–,–,–
FC(F)(F)c1ccc2c(c1)nc(-c1cccnc1)n2C1CC1,61.4,-3.77,-9.67,-7.86,-3.61,3.68,39.3,-0.0445,–,–,–,–,–,–,–,–,–
Cn1c(C2(NC(=O)c3ccc(NCC4CCCCC4)nc3)CCC2)nc2ccc(/C=C/C(=O)O)cc21,65.1,2.89,5.38,3.97,15,15.9,57.9,7.23,–,–,–,–,–,–,–,–,–
CCOC(=O)N1CCC(NS(=O)(=O)c2ccc(NC(=O)c3ccccc3C)c3ccccc23)CC1,-4.31,16.8,3.73,-6.86,6.16,-0.636,4.53,-2.92,–,–,–,–,–,–,–,–,–
CC[C@@H]1[C@H](F)C(=O)N[C@@H]1COc1nccc2cc(C(N)=O)c(OC)cc12,–,–,–,–,–,–,–,–,1.45,-3.17,-7.57,2.88,-7.95,2.52,35.2,-6.54,–
FC(F)(F)c1c(N2CCC(c3ccccc3)CC2)ccn2c(CC3CC3)nnc12,5.84,-4.5,-1.48,7.79,0.771,1.61,16.4,-5.14,–,–,–,–,–,–,–,–,–
C[C@H](NC(=O)Nc1cc2[nH]ncc2c(CO)n1)c1ccccn1,22.3,-8.95,-4.78,-0.801,0.354,21.2,51.6,4.22,–,–,–,–,–,–,–,–,–
CN1CCC[C@H]1c1cccnc1,-6.38,4.6,-0.35,8,-8.49,-4.08,-9.56,-2.67,–,–,–,–,–,–,–,–,–
COc1cc(O)c(C(CC(=O)N2C[C@H](C)C[C@H](C)C2)c2ccc3c(c2)OCO3)c(OC)c1 (stereo partly specified),55.4,-4.23,-7.38,-3.92,10.8,8.36,58.3,-0.808,–,–,–,–,–,–,–,–,–
COc1ccc2c(O[C@@H]3C[C@H]4C(=O)N[C@]5(C(=O)O)CC5/C=C\CCCCC[C@H](NC(=O)OC5CCCC5)C(=O)N4C3)cc(-c3csc(NC(=O)C(C)C)n3)nc2c1C (stereo partly specified),33.3,-5.14,1.3,6.6,55.8,-6.44,38.5,5.79,–,–,–,–,–,–,–,–,–
CCCCN(CCCC)C(=O)CN1C[C@H](c2cc(OC)c3c(c2)OCO3)[C@@H](C(=O)O)[C@@H]1CC(C)(C)CCC,–,–,–,–,–,–,–,–,62.3,–,-9.42,11.2,14.6,14.3,54.3,-0.907,–
CCOC(=O)c1ccc(CN(Cc2ccc(-c3cccc(S(C)(=O)=O)c3)cc2)S(=O)(=O)c2c(C)cc(C)cc2C)o1,46,–,-7.63,-3.26,0.574,14.1,35,0.52,–,–,–,–,–,–,–,–,–
